Source: PubChem BioAssay (NCI)
“And” between values parts separate entries of the source, which are not always exact repeats. Equal values may be shown once.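 In this assay, cells in 96-well plates receive the compound at five concentrations for 48 hours. Endpoints are linearly interpolated between the surrounding concentrations. At the GI50, growth is halved. TGI: concentration producing complete growth inhibition.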

Key:
Assay in all cases: DTP human tumour cell line panel, 48 h
HS 578T breast = tested on: HS 578T breast
M14 melanoma = tested on: M14 melanoma
MDA-MB-435 = tested on: MDA-MB-435
MOLT-4 leukemia = tested on: MOLT-4 leukemia
NCI-H460 lung = tested on: NCI-H460 lung
OVCAR-5 ovarian = tested on: OVCAR-5 ovarian
OVCAR-8 ovarian = tested on: OVCAR-8 ovarian
SN12C renal = tested on: SN12C renal
SNB-19 CNS = tested on: SNB-19 CNS
UACC-257 melanoma = tested on: UACC-257 melanoma

Structure (SMILES)	GI50 (HS 578T breast)	TGI (HS 578T breast)	GI50 (M14 melanoma)	TGI (M14 melanoma)	GI50 (MDA-MB-435)	TGI (MDA-MB-435)	GI50 (MOLT-4 leukemia)	TGI (MOLT-4 leukemia)	GI50 (NCI-H460 lung)	TGI (NCI-H460 lung)	GI50 (OVCAR-5 ovarian)	TGI (OVCAR-5 ovarian)	GI50 (OVCAR-8 ovarian)	TGI (OVCAR-8 ovarian)	GI50 (SN12C renal)	TGI (SN12C renal)	GI50 (SNB-19 CNS)	TGI (SNB-19 CNS)	TGI (UACC-257 melanoma)	GI50 (UACC-257 melanoma)
Fc1ccc(Oc2nccc(-c3c(-c4ccc(F)cc4)ncn3C3CCNCC3)n2)cc1	> 24 µM	> 25 µM	> 25 µM	> 25 µM	> 25 µM	> 25 µM	> 25 µM	> 25 µM	> 25 µM	> 25 µM	> 25 µM	> 25 µM	> 25 µM	> 25 µM	> 19.6 µM	> 25 µM	> 25 µM	> 25 µM		
COC1/C(=C\C(=O)OC(C)(C)C)c2ccccc2N1C(C)=O (stereo unspecified)				> 100 µM				> 100 µM		> 100 µM				> 100 µM		> 100 µM		> 100 µM	> 100 µM	
CC1(CO)OC1COCc1ccccc1 (stereo unspecified)				> 100 µM				> 100 µM		> 100 µM		> 100 µM		> 100 µM		> 100 µM		> 100 µM	> 100 µM	
CN(C)NC1=NS(=O)(=O)c2cc3c(cc2S1)N(N(C)C)C(=O)c1cc2c(cc1N(N(C)C)C3=O)SC(NN(C)C)=NS2(=O)=O		> 10 µM		> 10 µM				> 10 µM		> 10 µM		> 10 µM		> 10 µM		> 10 µM		> 10 µM	> 10 µM	
Cc1nc2c(=O)[nH]c(=O)n(C)c2[nH]c1=O				> 100 µM				> 100 µM		> 100 µM		> 100 µM		> 100 µM		> 100 µM		> 100 µM	> 100 µM	
COc1ccc2c(c1)nc(N)c1c3cc(OC)c(OC)cc3cn21	0.159 µM	32.3 µM			< 0.01 µM		0.281 µM	12.6 µM	0.0606 µM	11 µM	0.0749 µM	18.8 µM	0.123 µM	13.6 µM	0.147 µM	17.5 µM	0.0967 µM	19.1 µM	27.2 µM	11.4 µM
O=C(O)c1c2c(c(C(=O)O)c3ccccc13)-c1ccccc1-2				> 100 µM				> 100 µM				> 100 µM		> 100 µM		> 100 µM		> 100 µM	> 100 µM	
CC(=O)OCC1OC(OC2CC3C(C)(C)C(OC(C)=O)CC[C@]3(C)C3CCC45CC4(CC[C@H]5C(C)CC(O)[C@@H](O)C(C)(C)O)[C@]23C)C(O)C(O)C1O (stereo partly specified)			4.97 µM	13.1 µM and 16.6 µM			0.0045 µM	45 µM and 10.5 µM	6.88 µM	16.2 µM and 19.5 µM	14.6 µM	13.9 µM and 27.9 µM	8.43 µM	13.9 µM and 22.5 µM		13.2 µM and 19.1 µM	4.35 µM	13.2 µM and 14.8 µM	13.8 µM and 20.7 µM	
COc1cc2c(c(OC)c1OC)-c1ccc(SC)c(=O)cc1[C@@H](NC(=O)c1ccc(OC(C)=O)cc1)CC2								> 100 µM		0.0206 µM		65.5 µM		12.1 µM		18.8 µM	0.0214 µM		19.2 µM	
NCCCN(CCCN)CCCNCc1c2ccccc2c(CNCCCN(CCCN)CCCN)c2ccccc12				28.5 µM				69.8 µM		29.2 µM		> 100 µM		25.8 µM		34.2 µM		30.6 µM	27.3 µM	
COc1ccc(C2S/C(=C\c3cc(OC)c(OC)c(OC)c3)C(=O)N2NC(=O)Cc2ccccc2)cc1 (stereo unspecified)				> 100 µM				> 100 µM		> 100 µM		> 100 µM		> 100 µM		> 100 µM			> 100 µM	
COC(=O)COc1ccc(/C=C2\N=C(c3ccccc3)N(c3cc(C(F)(F)F)ccc3Cl)C2=O)cc1	83.7 µM	> 100 µM	50.6 µM	> 100 µM	50.3 µM	> 100 µM	28.6 µM	69.1 µM	> 100 µM	> 100 µM	> 100 µM	> 100 µM	40.4 µM	> 100 µM	> 100 µM	> 100 µM	83.8 µM	> 100 µM		
O=C(CNC(=O)OCc1ccccc1)Oc1ccccc1				> 100 µM				> 100 µM		> 100 µM		> 100 µM		> 100 µM		> 100 µM		> 42.7 µM	> 100 µM	
COc1ccc(C(=O)C(c2ccc(OC)cc2)C2(O)C(=O)Nc3c(C)cc(Cl)cc32)cc1 (stereo unspecified)				> 100 µM				54.5 µM		> 100 µM		> 100 µM		> 100 µM		> 100 µM		> 100 µM	> 100 µM	
CCOC(=O)/C(=C\c1ccc(OCc2ccccc2)c(OC)c1)C(=O)c1ccccc1				30.5 µM				43.6 µM				48.6 µM		> 10 µM		45.6 µM		66.4 µM	> 10 µM	
C=CC[C@H]1C[C@@]2(C)OC[C@H](C(C)C)N2C1=O										> 100 µM		> 100 µM		> 100 µM		> 100 µM		> 100 µM	> 100 µM	
FC(F)(F)c1cccc(COCCN2CCN(Cc3cccc(C(F)(F)F)c3)CC2)c1		38.2 µM		94.6 µM				41.9 µM		34.7 µM		31.6 µM		41.2 µM		33 µM		29.4 µM	35.5 µM	
CC1Cc2c(N)nc(NN)nc2NC1=O (stereo unspecified)				> 100 µM				> 100 µM		> 100 µM				> 100 µM		> 100 µM		> 100 µM	> 100 µM	
Cc1ncc([N+](=O)[O-])n1CCNS(=O)(=O)CCCn1ccnc1[N+](=O)[O-]		> 100 µM		> 100 µM		> 100 µM		> 100 µM		> 100 µM		> 100 µM		> 100 µM		> 100 µM			> 100 µM	
CCCCCCCCCNCCCCCCCCC	1.83 µM	4.16 µM	1.76 µM	3.19 µM	1.85 µM	3.58 µM			1.93 µM	3.65 µM	1.88 µM	3.91 µM	2.19 µM	4.66 µM	1.59 µM	3.25 µM	2.78 µM	9.83 µM	3.61 µM	1.93 µM
CN(C)CC(/C(Cc1ccccc1)=N\NC(=O)c1ccncc1)c1ccccc1 (stereo unspecified)				> 100 µM								> 100 µM		> 100 µM		> 100 µM		> 100 µM	> 100 µM	
